Experimental data: ChEMBL document CHEMBL1144218, “Synthesis and biological activity of anticoccidial agents: 5,6-diarylimidazo[2,1-b][1,3]thiazoles” (Bioorg Med Chem Lett, 2008)

Tests used:
Eimeria maxima [1] = assay: Anticoccidial activity against Eimeria maxima infected in poultry bird assessed as reduction of […] burden at 50 ppm, po after 7 days; format: functional; design: scale not given: the % may be the effect or the level left
Eimeria acervulina [2] = assay: Anticoccidial activity against Eimeria acervulina infected in poultry bird assessed as reduction of […] burden at 50 ppm, po after 7 days; format: functional; design: scale not given: the % may be the effect or the level left
Eimeria mitis [3] = assay: Anticoccidial activity against Eimeria mitis infected in poultry bird assessed as reduction of […] burden at 50 ppm, po after 7 days; format: functional; design: scale not given: the % may be the effect or the level left
Eimeria tenella [4] = assay: Anticoccidial activity against Eimeria tenella infected in poultry bird assessed as reduction of […] burden at 50 ppm, po after 7 days; format: functional; design: scale not given: the % may be the effect or the level left
[5] = Inhibition of Eimeria tenella PKG
Eimeria tenella [6] = assay: Anticoccidial activity against Eimeria tenella infected in poultry bird assessed as reduction of […] burden at 6.25 ppm, po after 7 days; format: functional; design: scale not given: the % may be the effect or the level left
Eimeria acervulina [7] = assay: Anticoccidial activity against Eimeria acervulina infected in poultry bird assessed as reduction of […] burden at 12.5 ppm, po after 7 days; format: functional; design: scale not given: the % may be the effect or the level left
Eimeria mitis [8] = assay: Anticoccidial activity against Eimeria mitis infected in poultry bird assessed as reduction of […] burden at 12.5 ppm, po after 7 days; format: functional; design: scale not given: the % may be the effect or the level left
Eimeria tenella [9] = assay: Anticoccidial activity against Eimeria tenella infected in poultry bird assessed as reduction of […] burden at 12.5 ppm, po after 7 days; format: functional; design: scale not given: the % may be the effect or the level left
Eimeria acervulina [10] = assay: Anticoccidial activity against Eimeria acervulina infected in poultry bird assessed as reduction of […] burden at 6.25 ppm, po after 7 days; format: functional; design: scale not given: the % may be the effect or the level left
Eimeria acervulina [11] = assay: Anticoccidial activity against Eimeria acervulina infected in poultry bird assessed as reduction of […] burden at 25 ppm, po after 7 days; format: functional; design: scale not given: the % may be the effect or the level left
Eimeria maxima [12] = assay: Anticoccidial activity against Eimeria maxima infected in poultry bird assessed as reduction of […] burden at 6.25 ppm, po after 7 days; format: functional; design: scale not given: the % may be the effect or the level left
Eimeria maxima [13] = assay: Anticoccidial activity against Eimeria maxima infected in poultry bird assessed as reduction of […] burden at 25 ppm, po after 7 days; format: functional; design: scale not given: the % may be the effect or the level left
Eimeria tenella [14] = assay: Anticoccidial activity against Eimeria tenella infected in poultry bird assessed as reduction of […] burden at 25 ppm, po after 7 days; format: functional; design: scale not given: the % may be the effect or the level left
Eimeria maxima [15] = assay: Anticoccidial activity against Eimeria maxima infected in poultry bird assessed as reduction of […] burden at 12.5 ppm, po after 7 days; format: functional; design: scale not given: the % may be the effect or the level left
Eimeria mitis [16] = assay: Anticoccidial activity against Eimeria mitis infected in poultry bird assessed as reduction of […] burden at 25 ppm, po after 7 days; format: functional; design: scale not given: the % may be the effect or the level left
Eimeria mitis [17] = assay: Anticoccidial activity against Eimeria mitis infected in poultry bird assessed as reduction of […] burden at 6.25 ppm, po after 7 days; format: functional; design: scale not given: the % may be the effect or the level left

SMILES | Activity (Eimeria maxima [1]) [%] | Activity (Eimeria acervulina [2]) [%] | Activity (Eimeria mitis [3]) [%] | Activity (Eimeria tenella [4]) [%] | IC50 [5] [nM] | further results
CN(C)Cc1cn2c(-c3ccncc3)c(-c3ccc(F)cc3)nc2s1 | <50 | 50 | <50 | 80 | 22 | –
CN(C)CCc1cn2c(-c3ccncc3)c(-c3ccc(F)cc3)nc2s1 | <50 | 50 | 99 | 50 | 10.1 | –
CN1CCN(C(=O)c2cn3c(-c4ccncc4)c(-c4ccc(F)cc4)nc3s2)CC1 | – | – | – | – | 100 | –
Cc1c(CN2CCN(C)CC2)sc2nc(-c3ccc(F)cc3)c(-c3ccncc3)n12 | – | – | – | – | > 100 | –
CN(C)Cc1cn2c(-c3ccnc(N)n3)c(-c3ccc(F)cc3)nc2s1 | <50 | 100 | 50 | 99 | 0.9 | –
CN1CCN(CCc2cn3c(-c4ccncc4)c(-c4ccc(F)cc4)nc3s2)CC1 | 50 | 80 | <50 | 99 | 2.5 | –
CN1CCN(Cc2cn3c(-c4ccncn4)c(-c4ccc(F)cc4)nc3s2)CC1 | 100 | 99 | 100 | 100 | 1.04 | –
CN1CCN(Cc2cn3c(-c4ccnc(N)n4)c(-c4ccc(F)cc4)nc3s2)CC1 | 100 | 100 | 100 | 100 | 0.08 | Activity (Eimeria tenella [6]): 100%; Activity (Eimeria acervulina [7]): 100%; Activity (Eimeria mitis [8]): <50%; Activity (Eimeria tenella [9]): 100%; Activity (Eimeria acervulina [10]): 100%; Activity (Eimeria acervulina [11]): 100%; Activity (Eimeria maxima [12]): 100%; Activity (Eimeria maxima [13]): 100%; Activity (Eimeria tenella [14]): 100%; Activity (Eimeria maxima [15]): 100%; Activity (Eimeria mitis [16]): 100%; Activity (Eimeria mitis [17]): <50%
CN1CCN(Cc2cn3c(-c4ccncc4)c(-c4ccc(F)cc4)nc3s2)CC1 | <50 | 100 | 80 | 99 | 0.7 | –
